One assay addresses T1, TAK1(h) (Homo sapiens, UniProt O43318).
T1 sequence (O43318 1-303 limits assumed): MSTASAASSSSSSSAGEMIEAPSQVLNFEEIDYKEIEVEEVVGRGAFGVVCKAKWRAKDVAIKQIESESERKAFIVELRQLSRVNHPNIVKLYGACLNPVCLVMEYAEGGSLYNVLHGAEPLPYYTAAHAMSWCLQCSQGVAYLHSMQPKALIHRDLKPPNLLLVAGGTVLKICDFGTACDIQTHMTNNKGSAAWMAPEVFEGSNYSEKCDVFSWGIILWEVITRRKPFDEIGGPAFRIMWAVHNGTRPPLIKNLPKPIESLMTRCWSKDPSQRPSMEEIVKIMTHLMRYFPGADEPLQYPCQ
Briefly: kinase panel. The class given is biochemical. An excerpt:
(§1) We profiled three compounds from the series across the kinome (Table S1).
(§2) Ta b l e S1. The % inhibition of compounds 4, 5r [SU1261], and 6g [SU1349] against a
(§3) panel of kinase enzymes. We proϐiled three compounds from the series across 231
(§4) kinases. For SU1349, given its structural similarity with SU1261, we selected 98 from the
(§5) Tested kinase % inhibiƟon

The next assay addresses FGFR1(h) (Homo sapiens, UniProt P11362). Briefly: kinase panel. In kind it is biochemical.
Source text: as §1, §2, §3, §4, §5

For the next assay, the target named is T2, PRAK(h) (Homo sapiens, UniProt Q8IW41).
T2 sequence (Q8IW41 1-473): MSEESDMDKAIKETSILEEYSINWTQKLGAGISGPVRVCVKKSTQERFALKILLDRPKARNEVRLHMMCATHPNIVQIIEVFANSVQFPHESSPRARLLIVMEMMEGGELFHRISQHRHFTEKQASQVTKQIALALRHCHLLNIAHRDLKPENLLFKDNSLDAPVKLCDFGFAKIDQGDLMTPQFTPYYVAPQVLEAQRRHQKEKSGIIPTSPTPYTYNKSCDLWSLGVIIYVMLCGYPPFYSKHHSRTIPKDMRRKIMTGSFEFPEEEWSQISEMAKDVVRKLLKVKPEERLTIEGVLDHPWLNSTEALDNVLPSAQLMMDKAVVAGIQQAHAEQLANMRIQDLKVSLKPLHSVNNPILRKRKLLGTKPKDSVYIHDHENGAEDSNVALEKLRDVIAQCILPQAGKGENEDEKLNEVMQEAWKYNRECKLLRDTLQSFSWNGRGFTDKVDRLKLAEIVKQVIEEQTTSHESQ
In words: kinase panel. In kind it is biochemical.
Source text: as §1, §2, §3, §4, §5

The target of the next assay is JNK3(h) (Homo sapiens, UniProt P53779). Briefly: kinase panel. The class given is biochemical.
Chain of JNK3(h) (P53779 whole entry): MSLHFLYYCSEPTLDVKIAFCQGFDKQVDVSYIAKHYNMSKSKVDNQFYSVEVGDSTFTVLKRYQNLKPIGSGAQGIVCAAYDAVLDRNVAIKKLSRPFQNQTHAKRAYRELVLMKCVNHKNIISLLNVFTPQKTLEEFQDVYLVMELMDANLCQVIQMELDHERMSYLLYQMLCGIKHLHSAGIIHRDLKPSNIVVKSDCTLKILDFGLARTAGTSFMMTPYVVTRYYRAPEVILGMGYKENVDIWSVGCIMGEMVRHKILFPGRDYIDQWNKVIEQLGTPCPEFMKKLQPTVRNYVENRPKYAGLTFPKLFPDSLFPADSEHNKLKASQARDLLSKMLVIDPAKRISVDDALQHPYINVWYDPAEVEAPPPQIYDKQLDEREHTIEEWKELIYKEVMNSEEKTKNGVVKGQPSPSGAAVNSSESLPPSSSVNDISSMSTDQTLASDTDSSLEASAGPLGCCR
Source text: as §1, §2, §3, §4, §5

In the next assay the target is PDGFRβ(h) (Homo sapiens, UniProt P09619). In words: kinase panel. In kind it is biochemical.
Chain of PDGFRβ(h) (P09619 33-1106): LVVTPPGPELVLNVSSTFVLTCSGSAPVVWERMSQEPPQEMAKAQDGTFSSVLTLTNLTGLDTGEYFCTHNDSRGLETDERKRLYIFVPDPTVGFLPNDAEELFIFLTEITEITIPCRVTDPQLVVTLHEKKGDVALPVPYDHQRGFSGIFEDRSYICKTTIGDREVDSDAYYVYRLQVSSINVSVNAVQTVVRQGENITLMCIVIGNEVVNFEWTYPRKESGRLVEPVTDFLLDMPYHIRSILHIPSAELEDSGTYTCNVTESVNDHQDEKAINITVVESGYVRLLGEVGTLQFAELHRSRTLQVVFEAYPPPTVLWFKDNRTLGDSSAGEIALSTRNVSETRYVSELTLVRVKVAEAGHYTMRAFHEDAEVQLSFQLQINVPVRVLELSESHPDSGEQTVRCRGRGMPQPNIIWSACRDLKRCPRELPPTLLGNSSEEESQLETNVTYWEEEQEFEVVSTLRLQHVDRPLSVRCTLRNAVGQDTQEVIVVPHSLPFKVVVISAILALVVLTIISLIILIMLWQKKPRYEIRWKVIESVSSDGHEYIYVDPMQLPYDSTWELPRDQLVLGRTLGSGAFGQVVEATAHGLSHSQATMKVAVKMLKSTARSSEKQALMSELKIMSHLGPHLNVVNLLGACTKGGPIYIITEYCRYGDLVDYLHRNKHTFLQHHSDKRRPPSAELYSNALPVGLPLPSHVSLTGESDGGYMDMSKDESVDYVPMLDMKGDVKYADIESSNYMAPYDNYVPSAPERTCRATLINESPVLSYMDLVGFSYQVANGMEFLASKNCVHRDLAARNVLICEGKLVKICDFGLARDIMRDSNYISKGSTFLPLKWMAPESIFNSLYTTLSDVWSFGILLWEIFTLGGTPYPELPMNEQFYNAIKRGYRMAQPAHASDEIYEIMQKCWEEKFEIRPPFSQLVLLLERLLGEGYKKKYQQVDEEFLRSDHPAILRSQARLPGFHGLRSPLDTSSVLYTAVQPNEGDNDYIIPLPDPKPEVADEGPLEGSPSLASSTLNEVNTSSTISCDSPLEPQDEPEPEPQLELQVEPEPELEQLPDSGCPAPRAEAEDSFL
Source text: as §1, §2, §3, §4, §5

A further assay addresses MAPKAP-K2(h) (Homo sapiens, UniProt P49137). Briefly: kinase panel. In kind it is biochemical.
Source text: as §1, §2, §3, §4, §5

The target of a further assay is MEK1(h) (Homo sapiens, UniProt Q02750). Briefly: kinase panel. The class given is biochemical.
Chain of MEK1(h) (Q02750 whole entry): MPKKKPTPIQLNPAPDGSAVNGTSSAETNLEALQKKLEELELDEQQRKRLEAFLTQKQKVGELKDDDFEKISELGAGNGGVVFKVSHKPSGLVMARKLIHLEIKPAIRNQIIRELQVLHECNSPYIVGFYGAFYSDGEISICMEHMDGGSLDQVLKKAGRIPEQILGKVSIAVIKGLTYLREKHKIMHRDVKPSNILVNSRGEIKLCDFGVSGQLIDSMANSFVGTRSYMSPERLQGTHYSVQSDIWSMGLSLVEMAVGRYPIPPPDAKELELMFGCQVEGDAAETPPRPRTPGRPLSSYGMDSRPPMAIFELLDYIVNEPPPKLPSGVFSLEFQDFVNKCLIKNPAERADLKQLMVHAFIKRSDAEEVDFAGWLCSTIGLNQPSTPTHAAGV
Source text: as §1, §2, §3, §4, §5

The target in another assay is Abl(h) (Homo sapiens, UniProt P00519). Briefly: kinase panel. The class given is biochemical.
Chain of Abl(h) (P00519 whole entry): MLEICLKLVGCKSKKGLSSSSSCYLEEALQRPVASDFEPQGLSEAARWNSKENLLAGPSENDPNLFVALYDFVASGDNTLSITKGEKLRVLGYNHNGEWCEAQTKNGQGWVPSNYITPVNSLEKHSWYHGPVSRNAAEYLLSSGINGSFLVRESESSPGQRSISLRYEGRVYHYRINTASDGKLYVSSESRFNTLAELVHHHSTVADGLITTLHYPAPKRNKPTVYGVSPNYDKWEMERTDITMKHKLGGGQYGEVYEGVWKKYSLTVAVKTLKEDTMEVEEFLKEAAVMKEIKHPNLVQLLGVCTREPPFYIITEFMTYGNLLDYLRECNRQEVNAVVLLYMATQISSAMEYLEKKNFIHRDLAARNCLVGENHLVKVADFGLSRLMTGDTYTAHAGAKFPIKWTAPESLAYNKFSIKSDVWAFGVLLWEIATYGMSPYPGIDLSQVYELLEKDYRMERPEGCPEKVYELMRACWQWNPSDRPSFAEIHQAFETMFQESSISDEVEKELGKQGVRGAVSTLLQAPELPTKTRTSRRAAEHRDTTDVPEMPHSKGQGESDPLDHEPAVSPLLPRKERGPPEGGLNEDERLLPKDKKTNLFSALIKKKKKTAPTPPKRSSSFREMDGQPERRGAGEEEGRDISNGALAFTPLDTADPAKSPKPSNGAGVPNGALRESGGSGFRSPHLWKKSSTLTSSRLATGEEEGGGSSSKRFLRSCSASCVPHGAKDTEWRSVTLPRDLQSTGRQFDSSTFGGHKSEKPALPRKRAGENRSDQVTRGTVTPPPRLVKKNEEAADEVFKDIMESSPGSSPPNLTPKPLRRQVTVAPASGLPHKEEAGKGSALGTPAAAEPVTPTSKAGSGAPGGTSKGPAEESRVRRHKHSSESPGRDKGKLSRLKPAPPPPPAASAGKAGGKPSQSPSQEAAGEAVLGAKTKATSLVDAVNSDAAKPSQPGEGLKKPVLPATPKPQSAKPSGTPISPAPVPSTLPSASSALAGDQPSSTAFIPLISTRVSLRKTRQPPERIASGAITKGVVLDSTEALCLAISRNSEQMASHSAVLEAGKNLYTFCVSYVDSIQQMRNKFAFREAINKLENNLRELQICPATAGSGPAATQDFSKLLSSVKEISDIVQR
Source text: as §1, §2, §3, §4, §5

The next assay concerns the target ZIPK(h) (Homo sapiens, UniProt O43293). In words: kinase panel. The class given is biochemical.
Source text: as §1, §2, §3, §4, §5

The subject of assay [1] is IKKα-mediated p100 phosphorylation (Ser866/870) in U2OS cells. In words: FCS-stimulated p100 phosphorylation (Ser866/870), Western blotting. In kind it is cell-based. The conditions noted are these: Homo sapiens, 1 h pre-treatment, FCS 10% 4 h. The method, then: To assess the translation of the biochemical potencies and selectivities described above to a cell-based setting, exemplars from the series were initially examined for inhibitory action against IKKs in the U2OS osteosarcoma cell line. This cell type was utilised to represent cells with a proliferative phenotype dependent on the constitutively activated IKKα-mediated non-canonical NF-κB pathway. Compounds 5r [SU1261]
U2OS cells were cultured in McCoy’s 5A Modified Medium, and PC-3M-Luc-C6 prostate cancer cells were cultured in Minimum Essential Medium (MEM), each containing 10% (v/v) Foetal Calf Serum (FCS), L-glutamine ([…]), and penicillin/streptomycin (250 units/mL; 100 μg/mL) and incubated in a humidified atmosphere at 37 °C with 5% (v/v) CO2. Cells were grown to near confluence and prior to experimentation rendered quiescent by serum deprivation for 24 h.
For examination of potential effects of compound on non-canonical NF-κB signalling, cells were exposed to vehicle (DMSO; 0.03–0.05% (v/v)) or increasing concentrations of compounds (0.01–30 µM) for 1 h prior to treatment with FCS (10% (v/v); for U2OS cells) or LTα1β2 (20 ng/mL; for PC-3M cells) for 4 h. The status of p-p100 (Ser 866/870) in whole-cell extracts prepared from 12-well plates was assessed by Western blotting, as described in McKenzie et al.. […] Thereafter, p52 and RelB status in crude nuclear extracts normalised for protein amounts were assessed by Western blotting.
Each figure/panel of Western blotting data represents one of at least three separate experiments. Western blots were scanned and imaged using Adobe Photoshop 5.0.2 software and polypeptide bands were semi-quantified by scanning densitometry using the Scion Image program. Data were normalised to fold expression/inhibition relative to ‘agonist plus vehicle’ treatment and expressed as mean ± s.e.m. […]

The values that follow come from PMC11314561, “Design and Synthesis of Novel Aminoindazole-pyrrolo[2,3-b]pyridine Inhibitors of IKKα That Selectively Perturb Cellular Non-Canonical NF-κB Signalling” (Molecules, 2024).

In general, inhibition refers to the drop in the measured response relative to a control, in per cent. For orientation: IC50 means the concentration that inhibits the measured activity by half.

Chain of FGFR1(h) (P11362 22-822): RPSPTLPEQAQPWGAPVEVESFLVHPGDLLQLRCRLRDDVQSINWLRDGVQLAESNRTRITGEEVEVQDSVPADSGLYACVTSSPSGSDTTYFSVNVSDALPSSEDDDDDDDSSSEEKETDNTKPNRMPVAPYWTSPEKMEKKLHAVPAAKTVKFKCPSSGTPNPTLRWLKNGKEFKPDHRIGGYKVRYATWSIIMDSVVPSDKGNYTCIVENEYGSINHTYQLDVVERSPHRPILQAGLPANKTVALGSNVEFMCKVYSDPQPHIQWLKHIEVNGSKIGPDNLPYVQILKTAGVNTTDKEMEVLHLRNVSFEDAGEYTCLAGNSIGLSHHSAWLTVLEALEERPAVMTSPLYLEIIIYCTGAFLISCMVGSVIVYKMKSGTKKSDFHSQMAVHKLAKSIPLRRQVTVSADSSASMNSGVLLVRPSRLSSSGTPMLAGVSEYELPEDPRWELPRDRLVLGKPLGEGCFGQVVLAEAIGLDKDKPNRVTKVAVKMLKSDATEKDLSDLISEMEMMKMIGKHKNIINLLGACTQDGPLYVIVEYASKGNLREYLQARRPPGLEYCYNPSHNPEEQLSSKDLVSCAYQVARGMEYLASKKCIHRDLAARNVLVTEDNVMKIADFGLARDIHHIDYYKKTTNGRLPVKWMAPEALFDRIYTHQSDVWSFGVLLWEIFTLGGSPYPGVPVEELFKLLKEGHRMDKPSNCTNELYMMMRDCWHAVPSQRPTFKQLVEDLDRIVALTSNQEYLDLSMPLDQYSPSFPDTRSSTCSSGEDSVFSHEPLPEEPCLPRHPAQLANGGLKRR
Chain of MAPKAP-K2(h) (P49137 whole entry): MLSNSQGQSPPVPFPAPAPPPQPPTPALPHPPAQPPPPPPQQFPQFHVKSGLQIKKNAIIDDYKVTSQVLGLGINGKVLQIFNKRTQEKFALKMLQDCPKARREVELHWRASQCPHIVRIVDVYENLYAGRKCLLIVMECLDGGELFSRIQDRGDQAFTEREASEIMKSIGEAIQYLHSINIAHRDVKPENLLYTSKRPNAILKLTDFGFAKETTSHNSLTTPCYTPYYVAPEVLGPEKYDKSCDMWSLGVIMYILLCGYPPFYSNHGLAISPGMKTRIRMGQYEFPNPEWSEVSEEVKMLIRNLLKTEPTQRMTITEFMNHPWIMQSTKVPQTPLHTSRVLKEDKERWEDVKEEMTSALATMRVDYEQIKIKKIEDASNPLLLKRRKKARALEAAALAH
Chain of ZIPK(h) (O43293 whole entry): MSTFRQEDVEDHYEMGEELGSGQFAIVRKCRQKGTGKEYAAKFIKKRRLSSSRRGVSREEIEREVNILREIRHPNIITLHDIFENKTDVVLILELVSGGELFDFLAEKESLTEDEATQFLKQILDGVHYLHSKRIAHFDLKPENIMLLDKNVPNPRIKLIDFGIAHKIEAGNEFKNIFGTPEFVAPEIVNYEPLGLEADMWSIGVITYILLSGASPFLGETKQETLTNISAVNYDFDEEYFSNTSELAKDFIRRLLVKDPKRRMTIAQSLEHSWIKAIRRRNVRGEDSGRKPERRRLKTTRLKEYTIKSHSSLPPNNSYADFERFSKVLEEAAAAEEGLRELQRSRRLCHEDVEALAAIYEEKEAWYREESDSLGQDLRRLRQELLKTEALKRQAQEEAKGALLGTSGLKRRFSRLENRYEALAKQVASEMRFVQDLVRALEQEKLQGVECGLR

As to `Nc1n[nH]c2ccc(-c3ccnc4[nH]c(-c5ccccc5)cc34)cc12` [Compound 4], the inhibition at 1 µM stood at 28% against TAK1(h); 84% on FGFR1(h); 97% on PRAK(h); 99% against JNK3(h); 14% against PDGFRβ(h); 38% on MAPKAP-K2(h). Besides, the inhibition at 1 µM at MEK1(h) is 8%; against Abl(h), 86%; on ZIPK(h), -7%. Also, in assay [1], the IC50 came out at 690 nM.

`Nc1n[nH]c2ccc(-c3ccnc4[nH]c(-c5cccc(OCc6ccccc6)c5)cc34)cc12` [Compound 5r [SU1261]]: the inhibition at 1 µM is 6% on TAK1(h); 64% at FGFR1(h); 91% at PRAK(h); 86% against JNK3(h); 1% against PDGFRβ(h); -3% against MAPKAP-K2(h). The inhibition at 1 µM on MEK1(h) is 0%; on Abl(h) it was 44%; at ZIPK(h) it was 0%. Further, in assay [1], the half-inhibitory concentration (IC50) amounted to 2870 nM.

For the molecule `Nc1n[nH]c2ccc(-c3ccnc4[nH]c(-c5ccnc(OCc6ccccc6)c5)cc34)cc12` [Compound 6g [SU1349]], the inhibition at 1 µM on TAK1(h) was 0%; on FGFR1(h), -4%; against PRAK(h) it was 44%; against JNK3(h) it was 62%; at PDGFRβ(h), -14%; on MAPKAP-K2(h), 1%. Moreover, the inhibition at 1 µM at MEK1(h) came to 8%; against Abl(h), 15%; on ZIPK(h), 1%. For the same molecule, the half-maximal inhibitory concentration (IC50) in assay [1] came to 8750 nM.
